Earlier results as cited in US20070275941A1, “SALT SENSITIVITY AND PREVENTION OF HYPERTENSION WITH DROSPIRENONE” (priority 2006, published 2007).

Tested on: postmenopausal women with hypertension

C[C@]12CCC(=O)C=C1[C@@H]1C[C@@H]1[C@H]1[C@@H]3[C@@H]4C[C@@H]4[C@@]4(CCC(=O)O4)[C@@]3(C)CC[C@@H]12 [drospirenone]
potassium sparing effect (clinical studies): demonstrated a potassium sparing effect | blood pressure reduction (postmenopausal women with hypertension, alone or in combination with other agents): consistently and substantially reduce blood pressure
